Results as given in patent US20230106943A1, “ENGINEERED ANTIMICROBIAL PEPTIDES AND USAGE THEREOF” (Peptilogics, Inc., priority 2021, published 2023).
Marks after values point to notes of the source that are not given here. No end group written: not given here.

Experiment: Example 4 stability of concentrated solutions: HPLC-UV Assay/RS (method 78917)
Type: physicochemical
Conditions: for HPLC-UV Assay / Related Substances Purity / Related Substances Total Impurities: 81.4 mg/mL solution
Protocol: The peptide formulation of SEQ ID NO: 1 dissolved in a saline solution with a pH of 5.0±0.1 was tested for stability under either −20° C. or 40° C. with 75% relative humidity (RH). […]

[1] = 36.7 mg/mL solution, −20° C., 1 Month
[2] = 36.7 mg/mL solution, −20° C., 2 Month
[3] = 36.7 mg/mL solution, −20° C., 3 Month
[4] = 36.7 mg/mL solution, −20° C., 6 Month
[5] = 36.7 mg/mL solution, −20° C., 9 Month
[6] = 72.4 mg/mL solution, 40° C. and 75% RH, 1 Month
[7] = 72.4 mg/mL solution, 40° C. and 75% RH, 2 Month
[8] = 72.4 mg/mL solution, 40° C. and 75% RH, 3 Month
[9] = 72.4 mg/mL solution, 40° C. and 75% RH, 6 Month
[10] = 72.4 mg/mL solution, −20° C., 0 Month
[11] = 72.4 mg/mL solution, −20° C., 1 Month
[12] = 72.4 mg/mL solution, −20° C., 2 Month
[13] = 72.4 mg/mL solution, −20° C., 3 Month
[14] = 72.4 mg/mL solution, −20° C., 6 Month
[15] = 72.4 mg/mL solution, −20° C., 9 Month

RRWVRRVRRVWRRVVRVVRRWVRR-NH2 [SEQ ID NO: 1]
SEQ ID NO: 1 % area (Inj-1) [1]: 99.13%
SEQ ID NO: 1 % area (Inj-2) [1]: 99.12%
SEQ ID NO: 1 Mean % Area [1]: 99.1%
HPLC-UV Assay/RS % Assay [2]: 103.2%
HPLC-UV Assay/RS % Purity [2]: 99%
HPLC-UV Assay/RS % Total Impurities [2]: 0.9%
HPLC-UV Assay/RS Impurities RRT/%, RRT 1.02 [2]: 1.02/0.9%
HPLC-UV Assay/RS % Assay [3]: 101.7%
HPLC-UV Assay/RS % Purity [3]: 99%
HPLC-UV Assay/RS % Total Impurities [3]: 0.9%
HPLC-UV Assay/RS Impurities RRT/%, RRT 1.02 [3]: 1.02/0.9%
HPLC-UV Assay/RS % Assay [4]: 99.8%
HPLC-UV Assay/RS % Purity [4]: 99%
HPLC-UV Assay/RS % Total Impurities [4]: 0.9%
HPLC-UV Assay/RS Impurities RRT/%, RRT 1.02 [4]: 1.02/0.9%
HPLC-UV Assay/RS % Assay [5]: 96.9%
HPLC-UV Assay/RS % Purity [5]: 100%
HPLC-UV Assay/RS % Total Impurities [5]: 0.3%
HPLC-UV Assay/RS Impurities RRT/%, RRT 1.01 [5]: 1.01/0.3%
% Purity [6]: 99%
% Total Impurities [6]: 1.1%
HPLC-UV % Assay [6]: 95.9%
RRT 1.02 impurity % area (Inj-1) [6]: 0.92 % area
RRT 1.02 impurity % area (Inj-2) [6]: 0.90 % area
RRT 1.02 impurity Mean % Area [6]: 0.9 % Area
RRT 1.32 impurity % area (Inj-1) [6]: 0.17 % area
RRT 1.32 impurity % area (Inj-2) [6]: 0.18 % area
RRT 1.32 impurity Mean % Area [6]: 0.2 % Area
SEQ ID NO: 1 peak % area (Inj-1) [6]: 98.91 % area
SEQ ID NO: 1 peak % area (Inj-2) [6]: 98.92 % area
SEQ ID NO: 1 peak Mean % Area [6]: 98.9 % Area
% Purity [7]: 99%
% Total Impurities [7]: 1.5%
HPLC-UV % Assay [7]: 98.4%
% Purity [8]: 98%
% Total Impurities [8]: 1.8%
HPLC-UV % Assay [8]: 90.5%
% Purity [9]: 96%
% Total Impurities [9]: 3.6%
HPLC-UV % Assay [9]: 87.0* %
% Puritvy [10]: 99.1%
% Total Impurities [10]: 1.0%
HPLC-UV % Assay [10]: 94.2%
RRT 1.02 impurity % area (Inj-1) [10]: 0.97 % area
RRT 1.02 impurity % area (Inj-2) [10]: 0.93 % area
RRT 1.02 impurity Mean % Area [10]: 1.0 % Area
SEQ ID NO: 1 peak % area (Inj-1) [10]: 99.03 % area
SEQ ID NO: 1 peak % area (Inj-2) [10]: 99.07 % area
SEQ ID NO: 1 peak Mean % Area [10]: 99.1 % Area
% Puritvy [11]: 99%
HPLC-UV % Assay [11]: 97.7%
RRT 1.02 impurity % area (Inj-1) [11]: 0.88 % area
RRT 1.02 impurity % area (Inj-2) [11]: 0.87 % area
RRT 1.02 impurity Mean % Area [11]: 0.9 % Area
SEQ ID NO: 1 peak % area (Inj-1) [11]: 99.12 % area
SEQ ID NO: 1 peak % area (Inj-2) [11]: 99.13 % area
SEQ ID NO: 1 peak Mean % Area [11]: 99.1 % Area
Total % Impurities [11]: 0.9%
% Purity [12]: 99%
% Total Impurities [12]: 0.9%
HPLC-UV % Assay [12]: 101.1%
% Purity [13]: 99%
% Total Impurities [13]: 1.0%
HPLC-UV % Assay [13]: 97.4%
% Purity [14]: 99%
% Total Impurities [14]: 0.9%
HPLC-UV % Assay [14]: 95.1%
% Purity [15]: 100%
% Total Impurities [15]: 0.5%
HPLC-UV % Assay [15]: 95.9%
HPLC-UV Assay (40° C. and 75% RH, 1 Month): 102.5 % LC
Related Substances Purity (40° C. and 75% RH, 1 Month): 98%
Related Substances Total Impurities (40° C. and 75% RH, 1 Month): 1.7%
HPLC-UV Assay (40° C. and 75% RH, 2 Month): 102.6 % LC
Related Substances Purity (40° C. and 75% RH, 2 Month): 98%
Related Substances Total Impurities (40° C. and 75% RH, 2 Month): 2.4%
HPLC-UV Assay (40° C. and 75% RH, 3 Month): 92.0♦ % LC
Related Substances Purity (40° C. and 75% RH, 3 Month): 97%
Related Substances Total Impurities (40° C. and 75% RH, 3 Month): 2.6%
HPLC-UV Assay (−20° C., 0 Month): 108.6 % LC
Related Substances Purity (−20° C., 0 Month): 99%
Related Substances Total Impurities (−20° C., 0 Month): 0.9%
HPLC-UV Assay (−20° C., 1 Month): 103.8 % LC
Related Substances Purity (−20° C., 1 Month): 99%
Related Substances Total Impurities (−20° C., 1 Month): 1.0%
HPLC-UV Assay (−20° C., 2 Month): 107.8 % LC
Related Substances Purity (−20° C., 2 Month): 99%
Related Substances Total Impurities (−20° C., 2 Month): 0.9%
HPLC-UV Assay (−20° C., 3 Month): 104.7 % LC
Related Substances Purity (−20° C., 3 Month): 100%
Related Substances Total Impurities (−20° C., 3 Month): 0.3%
